Data set [1] deals with L1210 leukemia. Put plainly: Lymphoid Leukemia L1210, survival of tumored mice. Type of data set: in vivo, CD2F1 mice. The note with it: Mus musculus, L1210, ip, 720 h. An outline of the steps: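 Male CD2 F1 mice, six per group, received 10^5 L1210 cells i.p. on day 0. Compounds in hydroxypropylcellulose, saline/Tween 80 or saline were given i.p. at various doses once daily on days 1-9, with vehicle controls.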

For data set [2], the system named is human colon carcinoma cells HCT-15. Put plainly: Human colon tumor test in vitro, HCT-15 cell growth inhibition. Format: cell-based. Particulars: for IC50: Homo sapiens, HCT-15, 72 h, read-out: in vitro HCT-15 ID50 (50 percent inhibition of number of doublings); for in vitro HCT-15 ID50 (50 percent inhibition of number of doublings): HCT-15 cells, compound day 1 to day 4, 4320 min. In outline:
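HCT-15 human colon adenocarcinoma cells in RPMI 1640 with 10% heat-inactivated FCS, compound added on day 1 and cells counted by hemocytometer on day 4. ID50 is the concentration (μg/ml) halving the number of doublings, from log-log dose-response plots.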

For data set [3], the system named is human colon tumor HCT-15. In words: Human colon tumor HCT-15 in athymic mice. Type of data set: in vivo, Swiss NU/NU athymic mice. The note with it: for Average Tumor Weight, Day 7 (day treatment was started) / Average Tumor Weight, Day 21 / Net Tumor Weight gain, Day 21 / Tumor Growth Inhibition, Day 21: 5 days from day 7; for toxicity: 40 mg/kg i.p., athymic mice. On the procedure:
The compounds of Example 1 and 91 were also tested for effectiveness against a human colon tumor implanted in athymic mice.
The animals used were Swiss NU/NU athymic mice, weighing 20-22 g each at the start of the test. The test group consisted of twelve mice, seven males and five females. The HCT-15 tumor cell line, derived from a patient with adenocarcinoma of the colon, was maintained in culture. The tumor was implanted in each of the test mice by the subcutaneous injection in the flank region of 0.2 ml of physiological saline containing 10^7 HCT-15 cultured cells. Tumors appeared within 72 hours and treatment started one week after tumor inoculation.
Test compounds, suspended in methocel (0.5% in water) or dissolved in water, were injected intraperitoneally once daily for five consecutive days starting on day seven relative to the day of tumor inoculation (day 0). The body weight and the size of the tumor were determined daily. Tumor size was determined by two-dimensional caliper measurements. Tumor weight was estimated from the formula: [formula] tumor weight in which 1=length and w=width of the tumor in mm. The net tumor weight was determined by subtracting from the actual tumor weight at the time of evaluation the initial estimated tumor weight at the time treatment was started (day 7). Drug effectiveness was assessed on the basis of inhibition of the gain in net tumor weight in the treated (T) compared to that of the control (C) mice. Percent tumor growth inhibition was calculated by the formula: [formula]

Data set [4] concerns colon tumors. The note with it: in vivo; cited from earlier work.
In data set [5] the test system is melanotic melanoma B16. Put plainly: Melanotic Melanoma B16 test, survival of tumored mice. Format: in vivo, B6C3F1 mice. Particulars: for T/C × 100 (median survival time): 9 days, 2 tests. Here is the method:
The efficacy of the compounds of this invention against the transplanted mouse tumors was evaluated in test systems currently in use at the National Cancer Institute for the detection and assessment of anticancer activity. […] J. Cancer, 17, 129-142, (1981); Venditti, J. M., Seminars in Oncology, 8 (4) (1981); Goldin, A. and J. M. Venditti, in Recent Results in Cancer Research, 70, S. K. Carter and Y. Sakurai, Eds., Springer-Verlag, Berlin/Heidelberg, 1980].
The animals used were B6 C3 F1 mice, all of one sex, weighing a minimum of 18 g for males and 17 g for females and all within a 4 g weight range at the start of the test. The test group comprised 9 or 10 mice. The tumor was implanted in each of the test mice by the subcutaneous injection of 0.5 ml of a tumor homogenate prepared by homogenizing a 1 g portion of melanotic melanoma in 10 ml of cold physiological saline. The test compounds suspended in hydroxypropylcellulose were administered intraperitoneally at various doses once daily for nine consecutive days starting on day one relative to the day of tumor inoculation (day 0). The control mice received injections of hydroxypropylcellulose vehicle only. The mice were weighted and survivors were recorded on a regular basis for 60 days. The median survival times and the ratio of the median survival times for treated (T) to control (C) mice were calculated. The median survival time of the nontreated tumored mice ranged from 15 to 17 days. Drug effectiveness was assessed on the basis of the survival time. Results were expressed as a percentage of the control survival time (Survival Time T/C ×100%). The criterion for effectiveness was determined by: T/C ×100 ≥125 percent.

The test system of data set [6] is liver tissue. The note with it: cited from earlier work.
Data set [7] concerns NF mouse sarcoma. The note with it: in vitro; cited from earlier work.

Converted amounts (≈) assume the structure as drawn. “And” between values parts separate entries of the source, which are not always exact repeats. Equal entries are not always repeated.

As for `Cc1c(-c2ccc(C3CCCCC3)cc2)nc2ccc(F)cc2c1C(=O)[O-].[Na+]` [Example 91, Sodium 2-(4-Cyclohexylphenyl)-6-fluoro-3-methylquinoline-4-carboxylate], in data set [1] (read-out: L1210 Leukemia % T/C (median survival time), 40 mg/kg i.p., marked * (not explained)), the response vs control in vivo at 40 mg/kg was determined as 140%. Also, the response vs control in vivo at 100 mg/kg in data set [1] (read-out: L1210 Leukemia % T/C (median survival time), 100 mg/kg i.p., nonoptimal Q1DX9 instead of Q3DX9) was 103%. In addition, in data set [2], the IC50 was found to be 0.04 µg/mL. In addition, in data set [3] (10 mg/kg i.p. once daily), the “Average Tumor Weight, Day 7 (day treatment was started)” value was found to be 56.8 mg; the “Average Tumor Weight, Day 21” value is recorded as 322.8 mg; the “Net Tumor Weight gain, Day 21” value turned out to be 266.0 mg; the “Tumor Growth Inhibition, Day 21” value is on record as 10.0%. In addition, in data set [3] (20 mg/kg i.p. once daily), the “Average Tumor Weight, Day 7 (day treatment was started)” value is 56.2 mg; the “Average Tumor Weight, Day 21” value was 245.1 mg; the “Net Tumor Weight gain, Day 21” value is listed as 188.9 mg; the “Tumor Growth Inhibition, Day 21” value is 35.7%. In data set [3] (40 mg/kg i.p. once daily), the “Average Tumor Weight, Day 7 (day treatment was started)” value was determined as 56.8 mg; the “Average Tumor Weight, Day 21” value is reported as 256.9 mg; the “Net Tumor Weight gain, Day 21” value is listed as 200.1 mg; the “Tumor Growth Inhibition, Day 21” value is 32.0%.
Regarding `O=c1[nH]cc(F)c(=O)[nH]1` [5-Fluorouracil, reference compound], the “effectiveness in treatment of colon tumors in man” value in data set [4] is listed as “not consistently effective”. Also, the response vs control in vivo at 16 mg/kg in data set [1] (read-out: L1210 Leukemia % T/C (median survival time)) was 228%. The IC50 in data set [2] was determined as 0.27 µg/mL (≈ 2.08 µM). Further, the effectiveness entry in data set [3] (20 mg/kg i.p.) is on record as “ineffective”. In data set [3] (20 mg/kg i.p. once daily), the “Average Tumor Weight, Day 7 (day treatment was started)” value was determined as 56.7 mg; the “Average Tumor Weight, Day 21” value was determined as 421.7 mg; the “Net Tumor Weight gain, Day 21” value is reported as 365 mg; the “Tumor Growth Inhibition, Day 21” value is given as 0%. The toxicity entry in data set [3] is given as “Toxic”. Also, the toxicity result in data set [3] (listed as 5-Fluorouacil) is reported as “toxic”.
On to `Cc1c(-c2ccc(C3CCCCC3)cc2)nc2ccc(F)cc2c1C(=O)O` [Example 1, 2-(4-Cyclohexylphenyl)-6-fluoro-3-methylquinoline-4-carboxylic acid], for which the “T/C × 100 (median survival time)” value in data set [5] (25 mg/kg i.p. once daily) was 127% and 125%; in data set [5] (50 mg/kg i.p. once daily) it was 148% and 138%; in data set [5] (100 mg/kg i.p. once daily) it was 145% and 155%; in data set [5] (200 mg/kg i.p. once daily) it was 145% and 150%; in data set [5] (400 mg/kg i.p. once daily), 131% and 179%. Moreover, the “effectiveness against B16 melanoma in mice” value in data set [5] (criterion T/C × 100 ≥125 percent) was “effective against the B16 melanoma in mice”. The response vs control in vivo at 200 mg/kg in data set [1] (200 mg/kg i.p., read-out: L1210 Leukemia % T/C (median survival time)) was determined as 189%. Moreover, the “in vitro HCT-15 ID50 (50 percent inhibition of number of doublings)” value in data set [2] was 0.05 µg/mL. In addition, the results for the “Average Tumor Weight, Day 7 (day treatment was started)” value in data set [3] (50 mg/kg i.p. once daily), in data set [3] (100 mg/kg i.p. once daily) and in data set [3] (200 mg/kg i.p. once daily) were 56.3 mg, 56.6 mg and 56.8 mg, respectively. Further, the figures for the “Average Tumor Weight, Day 21” value in data set [3] (50 mg/kg i.p. once daily), in data set [3] (100 mg/kg i.p. once daily) and in data set [3] (200 mg/kg i.p. once daily) were 252.9 mg, 212.9 mg and 156.3 mg, respectively. In addition, the “Net Tumor Weight gain, Day 21” value in data set [3] (50 mg/kg i.p. once daily) was determined as 196.6 mg; in data set [3] (100 mg/kg i.p. once daily), 156.3 mg; in data set [3] (200 mg/kg i.p. once daily), 99.4 mg. In addition, the “Tumor Growth Inhibition, Day 21” value is given as 33.1% in data set [3] (50 mg/kg i.p. once daily), 46.8% in data set [3] (100 mg/kg i.p. once daily) and 66.2% in data set [3] (200 mg/kg i.p. once daily).
As to `N.N.[Cl][Pt][Cl]` [Cisplatin, reference compound], the “T/C × 100 (median survival time)” value in data set [5] (1 mg/kg i.p. once daily) was 175%; in data set [5] (2 mg/kg i.p. once daily), 212% and 136%. The “in vitro HCT-15 ID50 (50 percent inhibition of number of doublings)” value in data set [2] was 0.66 µg/mL.
On to `O=C(O)c1cc(-c2ccccc2)nc2ccccc12` [cinchophen, 2-phenyl-4-quinoline carboxylic acid], for which, in data set [6], the “degeneration of liver tissue” value was “can produce a degeneration of liver tissue of a possible precancerous nature”. In addition, the tumoricidal effect result in data set [7] is “no tumoricidal effect”.

The record behind these values is patent publication US5032597A, “Method of using phenylquinolinecarboxylic acids and derivatives for lymthoid leukemia treatment in a mammal” (priority 1987, dated 1991).
